Reference: ChEMBL document CHEMBL1201862, “PubChem BioAssay data set” (2004)
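Protocol summary: plate cells (96-well), add compound at 5 concentrations, incubate 48 h, interpolate endpoints linearly. GI50: concentration for 50% inhibition of growth.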 The source made the active and inactive calls. Cut-off read from the data, not from the text of the source: active = GI50 up to about 1.1 µM and inactive = higher.

Experiments:
Experiment in all cases: DTP human tumour cell line panel, 48 h
[1] = tested on: NCI-H460
[2] = tested on: LXFL 529
[3] = tested on: SW-620
[4] = tested on: OVCAR-5
[5] = tested on: HT-29
[6] = tested on: HCC 2998
[7] = tested on: K562
[8] = tested on: SF-268
[9] = tested on: KM12
[10] = tested on: NCI-H522
[11] = tested on: HOP-18
[12] = tested on: SK-MEL-5
[13] = tested on: 786-0
[14] = tested on: A498
[15] = tested on: UACC-257
[16] = tested on: DLD-1
[17] = tested on: COLO 205
[18] = tested on: SK-MEL-28
[19] = tested on: OVCAR-8
[20] = tested on: XF498
[21] = tested on: NCI-H226
[22] = tested on: HOP-62
[23] = tested on: EKVX
[24] = tested on: U-251
[25] = tested on: TK-10
[26] = tested on: SN12C
[27] = tested on: RXF 393
[28] = tested on: A549
[29] = tested on: MOLT-4
[30] = tested on: LOX IMVI
[31] = tested on: SNB-19
[32] = tested on: UACC-62
[33] = tested on: ACHN
[34] = tested on: IGROV-1
[35] = tested on: HL-60
[36] = tested on: KM-20L2
[37] = tested on: CCRF-CEM
[38] = tested on: DMS-273
[39] = tested on: SK-OV-3
[40] = tested on: SK-MEL-2
[41] = tested on: SF-295
[42] = tested on: SNB-75
[43] = tested on: HCT-116
[44] = tested on: UO-31
[45] = tested on: Malme-3M
[46] = tested on: OVCAR-3
[47] = tested on: M14
[48] = tested on: CAKI-1
[49] = tested on: OVCAR-4
[50] = tested on: SR
[51] = tested on: NCI-H23
[52] = tested on: M19-MEL
[53] = tested on: RPMI-8226
[54] = tested on: HCT-15
[55] = tested on: NCI/ADR-RES
[56] = tested on: HOP-92
[57] = tested on: MCF7
[58] = tested on: SNB-78
[59] = tested on: SF-539
[60] = tested on: DMS-114

Measured: GI50

Cc1[nH]c2ccccc2c1C(=O)/C=C/c1ccccc1O
inactive: [1] > 100 µM | [2] > 100 µM | [3] > 100 µM | [4] > 100 µM | [5] > 100 µM | [6] > 100 µM | [7] > 100 µM | [8] > 100 µM | [9] > 100 µM | [10] > 100 µM | [11] > 100 µM | [12] > 100 µM | [13] > 100 µM | [14] > 100 µM | [15] > 100 µM | [16] > 100 µM | [17] > 100 µM | [18] > 100 µM | [19] > 100 µM | [20] > 100 µM | [21] > 10 µM | [22] > 100 µM | [23] > 100 µM | [24] > 100 µM | [25] > 100 µM | [26] > 100 µM | [27] > 100 µM | [28] > 100 µM | [29] > 100 µM | [30] > 100 µM | [31] > 100 µM | [32] > 100 µM | [33] > 100 µM | [34] > 100 µM | [35] > 100 µM | [36] > 100 µM | [37] > 100 µM | [38] > 100 µM | [39] > 100 µM | [40] > 100 µM | [41] > 100 µM | [42] > 100 µM | [43] > 100 µM | [44] > 100 µM | [45] > 100 µM | [46] > 100 µM | [47] > 100 µM | [48] > 100 µM | [49] > 100 µM | [50] > 100 µM | [51] > 100 µM | [52] > 100 µM

N=C(N)Nc1ncccc1[N+](=O)[O-]
inactive: [1] 51.8 µM | [53] > 95.1 µM | [3] > 100 µM | [4] > 100 µM | [5] 40.6 µM | [6] 55.2 µM | [7] > 100 µM | [8] 74.6 µM | [9] 57.4 µM | [10] > 100 µM | [11] > 100 µM | [12] 38.9 µM | [14] > 100 µM | [15] 23.6 µM | [16] > 100 µM | [17] 21.8 µM | [55] > 100 µM | [18] > 100 µM | [19] > 88.3 µM | [20] > 100 µM | [21] > 100 µM | [22] > 100 µM | [56] > 100 µM | [24] > 31.6 µM | [26] > 100 µM | [27] > 100 µM | [28] > 100 µM | [29] > 100 µM | [57] 25.7 µM | [30] 33.1 µM | [31] > 100 µM | [32] > 100 µM | [34] > 93.8 µM | [35] 19.7 µM | [36] 25.4 µM | [37] > 100 µM | [38] > 100 µM | [39] > 100 µM | [40] > 100 µM | [41] > 100 µM | [42] > 100 µM | [43] 38.4 µM | [44] > 100 µM | [45] 44.6 µM | [46] 25.1 µM | [58] > 100 µM | [59] 53.6 µM | [48] > 100 µM | [49] > 100 µM | [51] > 100 µM | [60] 15.8 µM
82.2 µM: [54]
